We go through 2 molecules from ChEMBL document CHEMBL4419177, “Crystalline forms of a lysyl oxidase-like 2 inhibitor and methods of making” (2018).

Common to all, as to type: physicochemical
Series [1] in a line: Solubility of compound ( form 1 ) in 150 uL water at 30 mg. To be noted: buffer.
Series [2] in a line: Solubility of compound ( form 1 ) in 10 uL water at 10 mg. To be noted: buffer.
Series [3] is described as follows: Stability under 3 month accelerated condition (40 degC/75% RH ) assessed as changes in purity or absorption of moisture. To be noted: 2191.5 h.
Series [4] in a line: Stability under 1-year ICH study conditions assessed as chemical or physical changes. To be noted: 8766 h.
The nature of series [5]: Stability under 2-year ICH study conditions assessed as chemical or physical changes. To be noted: 17532 h.
A short description of series [6]: Stability of the compound as a solid form exposed to heat at 100 degC incubated for 24 hrs by HPLC analysis.
Series [7] can be described thus: Stability of the compound as a solid form exposed to light (max 365 nm) incubated for 24 hrs by HPLC analysis.
Series [8] in a line: Stability of the compound as a solid form exposed to heat at 50 degC incubated for 24 hrs by HPLC analysis.

For the molecule `Cl.NCc1cc(Oc2cccc(C(=O)N3C[C@@H](O)[C@H](F)C3)c2)nc(C(F)(F)F)c1`, the solubility entry in series [1] and in series [2] was “Soluble” each time. For the same molecule, the Stability entry in series [3] was “Stable”.

For `CS(=O)(=O)O.NCc1cc(Oc2cccc(C(=O)N3C[C@@H](O)[C@H](F)C3)c2)nc(C(F)(F)F)c1`, the Stability entry in series [4], in series [5], in series [6], in series [7] and in series [8] was “Stable” throughout.
